Where “and” joins values, the source holds several entries; their conditions need not be identical. Equal values may be shown once. Read-outs that look alike come from different tables or passages of the source. Where no end group is shown, it is not given here.
Assays:
[1] = test system: human erythrocytes; assay: Hemolytic activity; format: cell-based
Experimental: Hemolytic assay was performed as described. Freshly drawn human erythrocytes were rinsed three times with PBS and resuspended in PBS to 4% (v/v). One hundred microliters of the suspension was added to 96-well microtiter plate containing equal volume of peptides to give final concentrations of peptides encompassing the range of 1.96–250 μg/ml. PBS and 0.1% (v/v) Triton-X 100 were used as 0% and 100% hemolytic control respectively. Plates were incubated at 37°C for 1 hr. Subsequently, the plate was centrifuged and the supernatant was transferred to a new plate. The release of hemoglobin in the supernatant was monitored at absorbance of 450 nm using Glomax Multidetection system (Promega, USA). Results were pooled from three independent experiments and expressed as mean ± SD. HC10 and HC50 were defined as the peptide concentrations causing 10% and 50% hemolysis on human erythrocytes, respectively. Hmax was the percentage hemolysis observed at the maximum concentration as defined throughout this study (all peptides 250 μg/ml, PEN 4 μg/ml).

[2] = test system: A. baumanii ATCC 15308; format: cell-based, Acinetobacter baumanii
Text: (§1) All bacterial strains were obtained from Department of Medical Microbiology, University of Malaya. Clinical isolates were previously obtained from University of Malaya Medical Centre and maintained in the laboratory. Sheep blood agar was used for pneumococcal cultivation purpose. Nutrient agar was used for cultivating E. coli ATCC 25922, S. aureus ATCC 25923, and P. aeruginosa ATCC 15442, Acinetobacter baumanii ATCC 15308, and one clinical isolate for each MRSA, E. cloacae, Citrobacter spp., and K. pneumoniae. For antimicrobial testing, Mueller-Hinton agar (MHA) and cationically-adjusted MHB (CAMHB) were prepared according to the Clinical and Laboratory Standard Institute guidelines. MHA for S. pneumoniae was supplemented with 5% (v/v) defibrinated sheep blood and 5% laked horse blood for CAMHB. All bacterial cultures were stored in multiple vials in brain heart infusion broth supplemented with 10% (v/v) glycerol at −80°C to avoid repeated freeze-thawed cycles on the cells. All freeze-stocked strains were passaged twice prior to experimentation.
(§2) Procedures were performed to determine the MIC of peptides according to the CLSI guidelines[21] against 60 pneumococcal isolates which consisted of 20 isolates each for PRSP, PISP, and PSSP. Strains were grown for 18–24 hrs at 37°C under 5% CO2. Direct suspension of the colonies were made in CAMHB and adjusted to OD625 0.08–0.1 which corresponds to 1 ~ 2 × 10^8 CFU/ml followed by serial ten-fold dilutions to give 1 × 10^6 CFU/ml. Fifty microliters of bacterial suspension was then aliquoted to 96-well round bottom microtiter plates containing equal volume of serially diluted peptides to give final concentrations of peptides encompassing the range of 1.96–250 μg/ml. […] The plates were incubated for 18–24 hrs at 37°C under 5% CO2. MIC was read as the concentration of peptide producing complete inhibition on the visible growth of the test organism. Results were pooled from three independent experiments. MIC range was defined as the range of concentrations where the peptides produce detectable antimicrobial activity. Effective percentage (EP) was the proportion of pneumococcal isolates inhibited within the MIC range. Since the isolates tested were obtained prior to 2008 where major revision in antibiotic susceptibility breakpoints were introduced, thus the pneumococci were defined according to the PEN susceptibility breakpoint (prior 2008) which corresponds to the PEN (oral penicillin V) breakpoint of the revised criteria.
The broad spectrum antibacterial activity of the peptides against a panel of eight clinically important bacteria was also determined, this includes S. aureus ATCC 25923, E. coli ATCC 25922, P. aeruginosa ATCC 15442, A. baumanii ATCC 15308, and one clinical isolate each for MRSA, E. cloacae, Citrobacter spp., and K. pneumoniae.

[3] = test system: NL20 cell line; assay: Cytotoxicity against human cell lines (CellTiter 96 AQueous); format: cell-based
Experimental: (§3) Both the NL20 human lung bronchial normal epithelial cell line and the A549 human lung alveolar adenocarcinoma epithelial cell line were used for cell cytotoxicity tests. Besides investigating the cytotoxicity of peptides, differences in cell viability between the two cell lines can be used to evaluate the cell line selectivity and to assess potential anticancer potential of the peptides. NL20 cell line was grown in Ham's F12 medium and A549 cell line was grown in Roswell Park Memorial Institute medium. Both media were supplemented with fetal bovine serum to 10% (v/v) as growth medium or 2% (v/v) as maintenance medium in cell cytotoxicity testing. The assay was performed as described by Lee et al.[26]. NL20 cells was seeded overnight at 3 × 10^4 cells/well in 96-well cell culture-treated flat bottom microtiter plate and treated with serial dilutions of peptide at a final concentration of 1.95–250 μg/ml. PEN was tested from 0.03–4 μg/ml, the same range used to classify the susceptibility of pneumococcal isolates in this study. Test using A549 cells followed the same procedures with 1 × 10^4 cells/well. Plates were incubated at 37°C under 5% CO2 for 24, 48, and 72 hrs. Cell viability was detected by using CellTiter 96® AQueous Non-Radioactive Cell Proliferation assay (Promega, USA) and the colorimetric changes were read with Glomax multidetection system (Promega, USA) at OD 490 nm. Results were pooled from three independent experiments and expressed as mean ± SD. […] Imax was the percentage of cell viable treated with peptides/PEN at the maximum concentration as defined throughout this study (all peptides 250 μg/ml, PEN 4 μg/ml).

[4] = test system: A549 cell line; assay: as above; format: cell-based
Experimental: as §3

[5] = test system: S. pneumoniae; format: cell-based, Streptococcus pneumoniae; conditions: for Overall EP: proportion of the 60 pneumococcal isolates inhibited within the MIC range
Text: as §1, §2

[6] = test system: penicillin-intermediate S. pneumoniae (PISP); format: cell-based, Streptococcus pneumoniae; conditions: for MIC, PISP: MIC range over 20 PISP isolates, CLSI broth microdilution, CAMHB with 5% laked horse blood, 18–24 hrs 37°C 5% CO2, peptides 1.96–250 μg/ml, three independent experiments; for EP %, PISP: effective percentage: proportion of isolates inhibited within the MIC range
Text: as §1, §2

[7] = test system: penicillin-susceptible S. pneumoniae (PSSP); format: cell-based, Streptococcus pneumoniae; conditions: for MIC, PSSP: MIC range over 20 PSSP isolates, CLSI broth microdilution, CAMHB with 5% laked horse blood, 18–24 hrs 37°C 5% CO2, peptides 1.96–250 μg/ml, three independent experiments; for EP %, PSSP: effective percentage: proportion of isolates inhibited within the MIC range
Text: as §1, §2

[8] = concentration reducing cell viability to 50%, 24 hrs, 2% FBS medium, OD 490 nm, mean ± SD of three independent experiments
[9] = concentration reducing cell viability to 50%, 48 hrs, 2% FBS medium, OD 490 nm, mean ± SD of three independent experiments
[10] = concentration reducing cell viability to 50%, 72 hrs, 2% FBS medium, OD 490 nm, mean ± SD of three independent experiments
[11] = percentage cell viability at the highest concentration (peptides 250 μg/ml; PEN 4 μg/ml), 24 hrs, mean ± SD
[12] = percentage cell viability at the highest concentration (peptides 250 μg/ml; PEN 4 μg/ml), 48 hrs, mean ± SD

GLFDIWKKWRWRR-NH2 [DM4]
HC10 ([1]; concentration causing 10% hemolysis, 4% (v/v) erythrocytes in PBS, 37°C 1 hr, absorbance 450 nm, mean ± SD of three independent experiments): > 250 µg/mL | HC50 ([1]; concentration causing 50% hemolysis, 4% (v/v) erythrocytes in PBS, 37°C 1 hr, absorbance 450 nm, three independent experiments): >250 µg/mL | Hmax ([1]; percentage hemolysis at the highest concentration tested (all peptides 250 μg/ml; PEN 4 μg/ml), mean ± SD of three independent experiments): < 1.0% and 0.6 ± 0.1% | MIC, A. baumanii ATCC 15308 ([2]; Gram-negative, broth microdilution, CAMHB, peptides 1.96–250 μg/ml): 31.3 µg/mL | IC50, NL20 cell line, 24 hrs [3, 8]: 160.2 ± 11.8 µg/mL | IC50, NL20 cell line, 48 hrs [3, 9]: 167.3 ± 5.9 µg/mL | IC50, NL20 cell line, 72 hrs [3, 10]: 205.0 ± 7.0 µg/mL | IC50 of NL20 cells higher than A549 cells by, 24 hrs ([3]; difference IC50 NL20 minus IC50 A549, 24 hrs): 66.9 µg/mL | IC50 of NL20 cells higher than A549 cells by, 48 hrs ([3]; difference IC50 NL20 minus IC50 A549, 48 hrs): 64.3 µg/mL | IC50 of NL20 cells higher than A549 cells by, 72 hrs ([3]; difference IC50 NL20 minus IC50 A549, 72 hrs): 97.5 µg/mL | Imax, NL20 cell line, 24 hrs [3, 11]: 6.9 ± 6.8% | Imax, NL20 cell line, 48 hrs [3, 12]: 5.9 ± 2.5% | Imax, NL20 cell line, 72 hrs ([3]; percentage cell viability at the highest concentration (peptides 250 μg/ml; PEN 4 μg/ml), 72 hrs, mean ± SD): 30.2 ± 2.9% | IC50, A549 cell line, 24 hrs [4, 8]: 93.3 ± 5.1 µg/mL | IC50, A549 cell line, 48 hrs [4, 9]: 103.0 ± 17.5 µg/mL | IC50, A549 cell line, 72 hrs [4, 10]: 107.5 ± 16.3 µg/mL | Imax, A549 cell line, 24 hrs [4, 11]: 8.5 ± 3.8% | Imax, A549 cell line, 48 hrs [4, 12]: 8.9 ± 1.4% | Overall MIC [5]: 15.63 to 125 µg/mL | Overall EP [5]: 100.0% | MIC, PISP [6]: 15.63 to 125 µg/mL | EP %, PISP [6]: (100.0) % | MIC, PSSP [7]: 15.63 to 125 µg/mL | EP %, PSSP [7]: (100.0) %

GLFDIWKKLRWRR-NH2 [DM5]
HC10 [1]: > 250 µg/mL | HC50 ([1]; red cells of human, 1 h): >250 µg/mL | MIC, A. baumanii ATCC 15308 ([2]; ATCC 15308): 31.3 µg/mL | Imax, NL20 cell line, 24 hrs [3]: 7.3 ± 2.4% | Imax, NL20 cell line, 48 hrs [3]: 8.3 ± 4.2% | Imax, NL20 cell line, 72 hrs [3]: 9.7 ± 5.4% | IC50, NL20 cell line, 24 hrs ([3]; 24 h): 179.2 ± 3.8 µg/mL | IC50 of NL20 cells higher than A549 cells by, 24 hrs ([3]; 24 h): 82.2 µg/mL | IC50, NL20 cell line, 48 hrs ([3]; 48 h): 188.2 ± 4.9 µg/mL | IC50 of NL20 cells higher than A549 cells by, 48 hrs ([3]; 48 h): 81.9 µg/mL | IC50, NL20 cell line, 72 hrs ([3]; 72 h): 191.7 ± 3.5 µg/mL | IC50 of NL20 cells higher than A549 cells by, 72 hrs ([3]; 72 h): 90.0 µg/mL | IC50, A549 cell line, 24 hrs ([4]; 24 h): 97.0 ± 9.8 µg/mL | IC50, A549 cell line, 48 hrs ([4]; 48 h): 106.3 ± 15.7 µg/mL | IC50, A549 cell line, 72 hrs ([4]; 72 h): 101.7 ± 9.5 µg/mL | Overall MIC [5]: 15.63 to 125 µg/mL | Overall EP [5]: 100.0% | MIC, PISP [6]: 15.63 to 125 µg/mL | EP %, PISP [6]: (100.0) % | MIC, PSSP [7]: 15.63 to 125 µg/mL | EP %, PSSP [7]: (100.0) %
